Test results from ChEMBL document CHEMBL5465560, “Selectivity Literature for EUbOPEN Chemogenomic Library” (2024).

Experiments:
[1] = molecular target: Cyclin-dependent kinase 9 (Homo sapiens, UniProt P50750); test: Selectivity interaction (KinomeScan (DiscoverX)) EUB0000229b CDK9; details: at 10 µM
[2] = molecular target: T1, Dual specificity mitogen-activated protein kinase kinase 6 (Homo sapiens) (UniProt P52564); test: Selectivity interaction (KinomeScan (DiscoverX)) EUB0000092b MAP2K6; details: at 10 µM
T1 sequence (whole entry): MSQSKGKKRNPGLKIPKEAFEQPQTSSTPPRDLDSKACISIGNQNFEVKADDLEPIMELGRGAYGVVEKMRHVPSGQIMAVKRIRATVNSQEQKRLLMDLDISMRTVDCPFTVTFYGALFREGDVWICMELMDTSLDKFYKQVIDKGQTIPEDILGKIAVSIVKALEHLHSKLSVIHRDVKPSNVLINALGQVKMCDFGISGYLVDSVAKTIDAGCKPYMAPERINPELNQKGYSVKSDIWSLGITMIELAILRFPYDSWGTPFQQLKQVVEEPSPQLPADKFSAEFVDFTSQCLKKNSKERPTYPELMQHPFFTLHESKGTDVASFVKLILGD

[3] = molecular target: Cyclin-dependent kinase 16 (Homo sapiens) (UniProt Q00536); test: Selectivity interaction (KinomeScan (DiscoverX)) EUB0001079a CDK16; details: at 1 µM
[4] = molecular target: CDK7/Cyclin H/MNAT1 (Homo sapiens) (UniProt P51946+P50613+P51948); test: Selectivity interaction (Millipore kinase profiler) EUB0000124b CDK7; type: protein-complex assay; details: at 10 µM
[5] = molecular target: Serine/threonine-protein kinase 38-like (Homo sapiens) (UniProt Q9Y2H1); test: Selectivity interaction (ActivX KiNativ screen (kinase selectivity in THP-1 cell lysates)) EUB0000639a STK38L; type: subcellular; details: lysate, at 1 µM
[6] = molecular target: T2, Muscle, skeletal receptor tyrosine-protein kinase (Homo sapiens) (UniProt O15146); test: Selectivity interaction (SelectScreen profiling (Invitrogen)) EUB0000607a MUSK; details: at 2 µM
T2 sequence (whole entry): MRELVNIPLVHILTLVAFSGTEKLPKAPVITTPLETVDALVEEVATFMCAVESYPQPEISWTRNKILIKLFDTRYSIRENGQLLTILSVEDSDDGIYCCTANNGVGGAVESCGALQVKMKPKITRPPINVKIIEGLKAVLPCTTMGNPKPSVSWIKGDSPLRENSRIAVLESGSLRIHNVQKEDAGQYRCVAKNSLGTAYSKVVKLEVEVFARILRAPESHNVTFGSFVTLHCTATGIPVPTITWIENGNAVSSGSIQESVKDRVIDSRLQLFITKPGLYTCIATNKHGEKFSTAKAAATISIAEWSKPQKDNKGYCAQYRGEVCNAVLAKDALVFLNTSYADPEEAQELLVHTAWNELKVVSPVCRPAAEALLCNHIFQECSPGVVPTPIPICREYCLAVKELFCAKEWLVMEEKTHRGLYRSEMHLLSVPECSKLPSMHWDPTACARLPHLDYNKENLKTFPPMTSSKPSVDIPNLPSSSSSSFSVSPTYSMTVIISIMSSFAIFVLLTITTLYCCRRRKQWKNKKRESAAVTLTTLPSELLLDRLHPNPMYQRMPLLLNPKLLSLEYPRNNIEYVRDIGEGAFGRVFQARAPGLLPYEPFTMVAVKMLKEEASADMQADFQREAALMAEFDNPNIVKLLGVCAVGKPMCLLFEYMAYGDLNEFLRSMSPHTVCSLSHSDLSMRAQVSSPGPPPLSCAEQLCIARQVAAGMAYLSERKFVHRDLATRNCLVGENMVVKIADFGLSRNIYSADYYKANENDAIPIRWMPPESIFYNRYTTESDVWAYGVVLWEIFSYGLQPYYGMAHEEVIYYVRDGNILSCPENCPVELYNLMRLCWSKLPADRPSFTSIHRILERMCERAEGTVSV

[7] = molecular target: Receptor tyrosine-protein kinase erbB-2 (Homo sapiens, UniProt P04626); test: Selectivity interaction (SelectScreen profiling (Invitrogen)) EUB0000607a ERBB2; details: at 2 µM
[8] = molecular target: T3, Tyrosine-protein kinase receptor TYRO3 (Homo sapiens) (UniProt Q06418); test: Selectivity interaction (KinomeScan (DiscoverX)) EUB0001049a TYRO3; details: at 1 µM
T3 sequence (whole entry): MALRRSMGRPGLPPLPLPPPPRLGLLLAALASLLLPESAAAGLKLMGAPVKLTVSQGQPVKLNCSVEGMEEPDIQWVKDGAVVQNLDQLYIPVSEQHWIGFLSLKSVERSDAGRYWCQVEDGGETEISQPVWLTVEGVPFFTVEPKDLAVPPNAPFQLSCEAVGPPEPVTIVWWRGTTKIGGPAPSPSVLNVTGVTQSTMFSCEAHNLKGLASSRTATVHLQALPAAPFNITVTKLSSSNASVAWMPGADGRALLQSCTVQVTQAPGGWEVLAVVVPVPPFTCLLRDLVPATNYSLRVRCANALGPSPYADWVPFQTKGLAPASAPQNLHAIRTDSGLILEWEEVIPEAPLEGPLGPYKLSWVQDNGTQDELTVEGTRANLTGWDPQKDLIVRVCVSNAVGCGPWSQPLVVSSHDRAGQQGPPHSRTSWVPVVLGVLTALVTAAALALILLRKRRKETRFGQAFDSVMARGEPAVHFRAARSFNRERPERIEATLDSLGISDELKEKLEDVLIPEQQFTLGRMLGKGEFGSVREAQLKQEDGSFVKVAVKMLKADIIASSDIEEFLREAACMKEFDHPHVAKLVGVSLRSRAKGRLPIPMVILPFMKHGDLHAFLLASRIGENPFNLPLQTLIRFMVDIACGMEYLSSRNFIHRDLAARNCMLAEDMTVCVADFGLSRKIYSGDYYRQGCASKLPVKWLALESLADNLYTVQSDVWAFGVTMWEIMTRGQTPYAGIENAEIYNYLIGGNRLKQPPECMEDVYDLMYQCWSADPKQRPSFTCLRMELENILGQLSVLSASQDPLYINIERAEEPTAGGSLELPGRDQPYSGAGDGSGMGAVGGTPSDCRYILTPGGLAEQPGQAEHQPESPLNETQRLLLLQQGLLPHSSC

[9] = molecular target: Serine/threonine-protein kinase 26 (Homo sapiens, UniProt Q9P289); test: Selectivity interaction (Kinase panel (literature)) EUB0001199aCl STK26; details: at 1 µM
Serine/threonine-protein kinase 26, sequence (Q9P289 2-416 limits assumed): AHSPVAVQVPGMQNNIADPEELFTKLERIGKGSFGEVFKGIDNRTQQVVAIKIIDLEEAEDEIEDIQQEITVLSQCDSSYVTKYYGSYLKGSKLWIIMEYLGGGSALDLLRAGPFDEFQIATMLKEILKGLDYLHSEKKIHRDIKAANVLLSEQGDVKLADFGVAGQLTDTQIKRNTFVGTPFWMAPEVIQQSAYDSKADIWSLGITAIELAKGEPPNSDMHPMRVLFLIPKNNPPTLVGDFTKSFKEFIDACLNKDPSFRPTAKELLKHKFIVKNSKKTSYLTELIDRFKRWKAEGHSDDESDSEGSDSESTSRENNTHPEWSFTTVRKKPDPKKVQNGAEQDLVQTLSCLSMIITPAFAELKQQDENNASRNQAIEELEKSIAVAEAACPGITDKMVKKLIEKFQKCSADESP

Cyclin-dependent kinase 9, sequence (P50750 whole entry): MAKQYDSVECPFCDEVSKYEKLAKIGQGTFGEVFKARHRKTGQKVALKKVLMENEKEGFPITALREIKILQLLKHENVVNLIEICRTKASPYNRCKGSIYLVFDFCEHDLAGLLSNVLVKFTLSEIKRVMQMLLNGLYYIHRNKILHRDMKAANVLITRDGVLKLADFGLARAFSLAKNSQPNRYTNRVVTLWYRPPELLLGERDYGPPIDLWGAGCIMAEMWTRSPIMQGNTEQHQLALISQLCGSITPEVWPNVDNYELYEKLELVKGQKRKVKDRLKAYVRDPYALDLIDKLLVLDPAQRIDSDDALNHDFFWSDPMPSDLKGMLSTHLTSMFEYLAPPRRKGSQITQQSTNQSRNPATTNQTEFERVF
Cyclin-dependent kinase 16 (Homo sapiens), sequence (Q00536 whole entry): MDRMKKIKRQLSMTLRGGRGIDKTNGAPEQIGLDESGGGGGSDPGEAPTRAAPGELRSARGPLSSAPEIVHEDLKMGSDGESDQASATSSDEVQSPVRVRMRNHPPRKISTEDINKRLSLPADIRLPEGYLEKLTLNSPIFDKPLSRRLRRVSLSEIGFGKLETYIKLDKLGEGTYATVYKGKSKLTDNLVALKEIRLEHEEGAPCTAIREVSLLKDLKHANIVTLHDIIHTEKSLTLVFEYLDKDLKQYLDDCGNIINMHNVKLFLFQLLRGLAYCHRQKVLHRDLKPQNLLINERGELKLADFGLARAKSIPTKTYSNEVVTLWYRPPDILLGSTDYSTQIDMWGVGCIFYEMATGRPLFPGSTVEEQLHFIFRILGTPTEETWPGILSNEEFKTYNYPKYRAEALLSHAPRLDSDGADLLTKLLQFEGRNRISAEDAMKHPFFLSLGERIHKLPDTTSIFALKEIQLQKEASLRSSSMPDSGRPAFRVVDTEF
Serine/threonine-protein kinase 38-like (Homo sapiens), sequence (Q9Y2H1 2-464 limits assumed): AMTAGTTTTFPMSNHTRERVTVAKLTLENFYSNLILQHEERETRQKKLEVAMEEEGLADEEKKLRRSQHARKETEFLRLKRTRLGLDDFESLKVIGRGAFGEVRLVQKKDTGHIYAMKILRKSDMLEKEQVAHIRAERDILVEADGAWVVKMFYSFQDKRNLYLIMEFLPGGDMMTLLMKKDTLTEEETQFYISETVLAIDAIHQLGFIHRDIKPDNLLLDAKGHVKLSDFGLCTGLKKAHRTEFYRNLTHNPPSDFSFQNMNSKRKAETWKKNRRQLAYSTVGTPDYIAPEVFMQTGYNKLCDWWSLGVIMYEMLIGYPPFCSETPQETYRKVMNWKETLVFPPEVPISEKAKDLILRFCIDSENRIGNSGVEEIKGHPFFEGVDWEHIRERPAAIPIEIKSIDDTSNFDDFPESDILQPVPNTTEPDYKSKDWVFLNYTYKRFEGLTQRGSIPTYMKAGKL
Receptor tyrosine-protein kinase erbB-2, sequence (P04626 whole entry): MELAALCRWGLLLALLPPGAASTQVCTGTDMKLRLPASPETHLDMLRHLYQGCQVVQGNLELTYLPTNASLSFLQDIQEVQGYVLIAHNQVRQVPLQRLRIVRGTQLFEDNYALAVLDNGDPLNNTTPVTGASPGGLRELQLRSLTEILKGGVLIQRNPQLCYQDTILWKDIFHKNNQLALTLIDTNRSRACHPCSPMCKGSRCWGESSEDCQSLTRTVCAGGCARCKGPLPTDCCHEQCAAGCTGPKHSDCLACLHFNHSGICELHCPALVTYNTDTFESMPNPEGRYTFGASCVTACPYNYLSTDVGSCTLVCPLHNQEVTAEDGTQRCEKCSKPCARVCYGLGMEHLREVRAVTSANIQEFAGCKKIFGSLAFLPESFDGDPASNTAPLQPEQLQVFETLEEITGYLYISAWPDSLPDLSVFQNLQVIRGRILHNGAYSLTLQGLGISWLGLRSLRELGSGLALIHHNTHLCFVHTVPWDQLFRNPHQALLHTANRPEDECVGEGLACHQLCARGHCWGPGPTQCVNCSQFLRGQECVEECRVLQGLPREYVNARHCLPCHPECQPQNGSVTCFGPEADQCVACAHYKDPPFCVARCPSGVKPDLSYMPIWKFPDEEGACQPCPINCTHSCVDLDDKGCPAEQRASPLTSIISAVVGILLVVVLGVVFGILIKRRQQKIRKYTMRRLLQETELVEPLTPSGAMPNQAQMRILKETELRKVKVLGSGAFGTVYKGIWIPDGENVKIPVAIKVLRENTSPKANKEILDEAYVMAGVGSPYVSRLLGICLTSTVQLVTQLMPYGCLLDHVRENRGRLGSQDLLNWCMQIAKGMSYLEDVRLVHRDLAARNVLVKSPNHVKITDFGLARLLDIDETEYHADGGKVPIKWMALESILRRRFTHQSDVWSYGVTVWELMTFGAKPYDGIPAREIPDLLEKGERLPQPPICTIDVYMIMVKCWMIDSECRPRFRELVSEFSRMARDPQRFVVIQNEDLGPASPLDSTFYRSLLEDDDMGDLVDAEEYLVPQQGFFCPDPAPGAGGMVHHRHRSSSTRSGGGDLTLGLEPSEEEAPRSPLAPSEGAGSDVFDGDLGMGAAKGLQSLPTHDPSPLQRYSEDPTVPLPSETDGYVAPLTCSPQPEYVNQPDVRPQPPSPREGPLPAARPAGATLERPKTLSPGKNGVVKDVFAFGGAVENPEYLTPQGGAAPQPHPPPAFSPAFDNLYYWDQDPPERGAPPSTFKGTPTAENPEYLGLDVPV

## COc1cc(N(C)c2ccnc3ccc(C(F)(F)F)cc23)cc(OC)c1OC
[1]
  % binding: 81%

## CCC(=O)N1CCN(c2ccc(-n3c(=O)ccc4cnc5ccc(-c6cnc7ccccc7c6)cc5c43)cc2C(F)(F)F)CC1
[2]
  % of control: 100%

## Nc1cnc(N2CCc3cc(S(=O)(=O)Nc4c(F)cc(Cl)cc4F)cc(N4CCCC4=O)c32)nc1 [TP-020n]
[3]
  % of control: 98%

## CC(=O)Nc1cccc(-n2c(=O)n(C3CC3)c(=O)c3c(Nc4ccc(I)cc4F)n(C)c(=O)c(C)c32)c1
[4]
  % of control: 106%

## CC[C@@H]1[C@H](F)C(=O)N[C@@H]1COc1nccc2cc(C(N)=O)c(OC)cc12 [ZIMLOVISERTIB]
[5]
  % of inhibition: 47.8%

## CNC(=O)Nc1ccc(-c2nc(N3CC4CCC(C3)O4)c3cnn(C4CCC5(CC4)OCCO5)c3n2)cc1
[6]
  % of inhibition: 15%
[7]
  % of inhibition: 0%

## COc1cc(Nc2nc(C)cc(-c3cnn4nc(OC)ccc34)n2)cc(C(F)(F)F)c1
[8]
  % of control: 76%

## CN1Cc2nccc(-c3cn(C)nc3-c3ccc(F)cc3)c2C1=O
[9]
  % of inhibition: 8%
